From US20260022143A1, “Cyclic Peptide Inhibitors of IL-23” (JANSSEN PHARMACEUTICA NV, priority 2022, published 2026)
Starred links: 1 amine or outer side, 2 acyl side, 3 side chain; linkers in the order of their positions; H or OH if unused. Positions of bridges follow the written chain, without caps; N, C: chain ends. Non-standard residues stand in square brackets, D forms with d. Residues, ends and D or L forms follow the SMILES beside them. Groups on a side chain read outwards from the residue. *: point of attachment. Me3N+(CH2)2O(CH2)2O(CH2)2CO = C[N+](C)(C)CCOCCOCCC(=O)*; X59 = C[N+](C)(C)CCN(CC*)S(=O)(=O)c1ccccc1[N+](=O)[O-]; CH2CH2OCH2CH2OCH2CH2NMe3+ = C[N+](C)(C)CCOCCOCC*; NH(CH2CH2O)2CH2CH2NMe3+ = C[N+](C)(C)CCOCCOCCN*; Trp(7-Me) = Cc1cccc2c(C[C@H](N)C(=O)O)c[nH]c12; Dab(NMeAc) = CC(=O)N(C)CC[C@H](N)C(=O)O; CH2CH2OCH2CH2NMe3+ = C[N+](C)(C)CCOCC*; 2Nal = N[C@@H](Cc1ccc2ccccc2c1)C(=O)O; X19 = C[N+](C)(C)C[C@@H](CC(=O)O)N*; X65 = COCCOCCC[N+](C)(CCCOCCOC)CC*; X22 = CN1CC[N+](C)(CCOCCOCC*)CC1; 3Pal = N[C@@H](Cc1cccnc1)C(=O)O; X54 = CC(=O)N(CC[N+](C)(C)C)CC*; Lys(Me) = CNCCCC[C@H](N)C(=O)O; Pen = CC(C)(S)[C@H](N)C(=O)O; Suc = O=C(CCC(=O)[*:2])[*:1]; X4 = COCCOCCCN(CCCOCCOC)CC*; X18 = C[N+]1(C)CCOC(C*)C1; Thp = NC1(C(=O)O)CCOCC1; X3 = C[N+](C)(C)CCCCC*; Sar = CNCC(=O)O

Tests used:
[1] = Exposed Polar Surface Area (EPSA); type: physicochemical; conditions: SFC on Chirex 3014 column; sample 1 mM DMSO stock; read-out: EPSA
Summary of the method: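 EPSA, in Å^2, is read from SFC retention time through a linear relationship established with eight calibration standards. Separation uses a Chirex 3014 stationary phase, 35 °C, 14 MPa back pressure, and a 5–60% methanol/ammonium formate modifier gradient in CO2.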

IL-23R = target: T1, IL-23R (Homo sapiens, UniProt Q5VWK5); test: IL23R Reporter Assay; type: cell-based; conditions: HEK293 cells containing IL-23R, IL-12RP1 and STAT-inducible firefly luciferase reporter; 10 ng/mL IL-23 (EC90); 5 h at 37° C.; read-out: IL23R Reporter Assay
T1 construct: host or cells: HEK293
T1 sequence (Q5VWK5 24-629): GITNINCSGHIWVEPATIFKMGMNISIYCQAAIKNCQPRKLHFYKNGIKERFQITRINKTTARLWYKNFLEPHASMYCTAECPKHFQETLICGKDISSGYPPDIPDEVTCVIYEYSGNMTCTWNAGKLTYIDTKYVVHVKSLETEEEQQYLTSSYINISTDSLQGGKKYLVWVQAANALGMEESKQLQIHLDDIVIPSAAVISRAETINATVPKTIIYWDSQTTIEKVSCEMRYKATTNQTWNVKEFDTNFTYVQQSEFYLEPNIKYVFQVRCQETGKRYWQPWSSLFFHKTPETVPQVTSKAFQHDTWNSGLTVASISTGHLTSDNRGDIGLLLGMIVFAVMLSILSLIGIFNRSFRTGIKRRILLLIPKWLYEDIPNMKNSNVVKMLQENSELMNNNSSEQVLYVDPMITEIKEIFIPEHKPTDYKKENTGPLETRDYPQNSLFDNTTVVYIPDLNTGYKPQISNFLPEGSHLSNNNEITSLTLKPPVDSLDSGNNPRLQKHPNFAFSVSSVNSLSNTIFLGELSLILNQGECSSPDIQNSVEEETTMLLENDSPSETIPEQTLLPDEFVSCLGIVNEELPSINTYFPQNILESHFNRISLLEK

Compound | EPSA [1] [A^2] | IC50 (IL-23R) [nM]
CC(=O)N(C)CCCC[C@@H]1NC(=O)[C@H](Cc2c[nH]c3c(C)cccc23)NC(=O)[C@H]([C@@H](C)O)NC(=O)[C@H](CC(=O)N(C)C)NC(=O)[C@@H](NC(=O)CCOCCOCC[N+](C)(C)C)C(C)(C)SSC(C)(C)[C@@H](C(=O)N[C@@H](Cc2ccc(OCCOCC[N+](C)(C)C)cc2)C(=O)N[C@@H](Cc2ccc3ccccc3c2)C(=O)NC2(C(=O)N[C@@H](CCCCN(C)C(C)=O)C(=O)N[C@@H](CC(N)=O)C(=O)N[C@@H](Cc3cccnc3)C(=O)N(C)CC(=O)N(C)C)CCOCC2)NC1=O [compound 199, cPEG3aCO-Pen(3)-N(N(Me)2)-T-7MeW-K(NMeAc)-Pen(3)-APEG2F-2Nal-THP-K(NMeAc)-N-3Pya-Sar-CON(Me)2] ({Me3N+(CH2)2O(CH2)2O(CH2)2CO}-[Pen]D(NMe2)T[Trp(7-Me)][Lys(Me)](Ac)[Pen]Y(CH2CH2OCH2CH2NMe3+)[2Nal][Thp][Lys(Me)](Ac)N[3Pal][Sar]-NMe2; disulfide 1-6) | 141 | 3
CC(=O)N(C)CCCC[C@@H]1NC(=O)[C@H](Cc2c[nH]c3c(C)cccc23)NC(=O)[C@H]([C@@H](C)O)NC(=O)[C@H](CC(=O)N(C)C)NC(=O)[C@@H](NC(=O)CCOCCOCC[N+](C)(C)C)C(C)(C)SSC(C)(C)[C@@H](C(=O)N[C@@H](Cc2ccc(OCC3C[N+](C)(C)CCO3)cc2)C(=O)N[C@@H](Cc2ccc3ccccc3c2)C(=O)NC2(C(=O)N[C@@H](CCCCN(C)C(C)=O)C(=O)N[C@@H](CC(N)=O)C(=O)N[C@@H](Cc3cccnc3)C(=O)N(C)CC(=O)N(C)C)CCOCC2)NC1=O (stereo partly drawn) [compound 202, cPEG3aCO-Pen(3)-N(N(Me)2)-T-7MeW-K(NMeAc)-Pen(3)-DMPMF-2Nal-THP-K(NMeAc)-N-3Pya-Sar-CON(Me)2] ({Me3N+(CH2)2O(CH2)2O(CH2)2CO}-[Pen]D(NMe2)T[Trp(7-Me)][Lys(Me)](Ac)[Pen]Y(X18)[2Nal][Thp][Lys(Me)](Ac)N[3Pal][Sar]-NMe2; disulfide 1-6) | 146 | 3.5
COCCOCCCN(CCCOCCOC)CCOc1ccc(C[C@H](NC(=O)[C@H]2NC(=O)[C@H](CCCCN(C)C(C)=O)NC(=O)[C@H](Cc3c[nH]c4c(C)cccc34)NC(=O)[C@H]([C@@H](C)O)NC(=O)[C@H](CC(=O)N(C)C)NC(=O)[C@@H](NC(=O)CCOCCOCC[N+](C)(C)C)C(C)(C)SSC2(C)C)C(=O)N[C@@H](Cc2ccc3ccccc3c2)C(=O)NC2(C(=O)N[C@@H](CCCCN(C)C(C)=O)C(=O)N[C@@H](CC(N)=O)C(=O)N[C@@H](Cc3cccnc3)C(=O)N(C)CC(=O)N(C)C)CCOCC2)cc1 [compound 203, cPEG3aCO-Pen(3)-N(N(Me)2)-T-7MeW-K(NMeAc)-Pen(3)-AEF(BisMEP))-2Nal-THP-K(NMeAc)-N-3Pya-Sar-CON(Me)2] ({Me3N+(CH2)2O(CH2)2O(CH2)2CO}-[Pen]D(NMe2)T[Trp(7-Me)][Lys(Me)](Ac)[Pen]Y(X4)[2Nal][Thp][Lys(Me)](Ac)N[3Pal][Sar]-NMe2; disulfide 1-6) | 135 | 1.6
CC(=O)N(C)CCCC[C@@H]1NC(=O)[C@H](Cc2c[nH]c3c(C)cccc23)NC(=O)[C@H]([C@@H](C)O)NC(=O)[C@H](CC(=O)N(C)C)NC(=O)[C@@H](NC(=O)CCOCCOCC[N+](C)(C)C)C(C)(C)SSC(C)(C)[C@@H](C(=O)N[C@@H](Cc2ccc(OCCN(CC[N+](C)(C)C)S(=O)(=O)c3ccccc3[N+](=O)[O-])cc2)C(=O)N[C@@H](Cc2ccc3ccccc3c2)C(=O)NC2(C(=O)N[C@@H](CCCCN(C)C(C)=O)C(=O)N[C@@H](CC(N)=O)C(=O)N[C@@H](Cc3cccnc3)C(=O)N(C)CC(=O)N(C)C)CCOCC2)NC1=O [compound 206, cPEG3aCO-Pen(3)-N(N(Me)2)-T-7MeW-K(NMeAc)-Pen(3)-AEF(NsCh)-2Nal-THP-K(NMeAc)-N-3Pya-Sar-CON(Me)2] ({Me3N+(CH2)2O(CH2)2O(CH2)2CO}-[Pen]D(NMe2)T[Trp(7-Me)][Lys(Me)](Ac)[Pen]Y(X59)[2Nal][Thp][Lys(Me)](Ac)N[3Pal][Sar]-NMe2; disulfide 1-6) | 145 | 2.6
CC(=O)N(C)CCCC[C@@H]1NC(=O)[C@H](Cc2c[nH]c3c(C)cccc23)NC(=O)[C@H]([C@@H](C)O)NC(=O)[C@H](CC(=O)N(C)C)NC(=O)[C@@H](NC(=O)CCOCCOCC[N+](C)(C)C)C(C)(C)SSC(C)(C)[C@@H](C(=O)N[C@@H](Cc2ccc(OCCN(CC[N+](C)(C)C)C(C)=O)cc2)C(=O)N[C@@H](Cc2ccc3ccccc3c2)C(=O)NC2(C(=O)N[C@@H](CCCCN(C)C(C)=O)C(=O)N[C@@H](CC(N)=O)C(=O)N[C@@H](Cc3cccnc3)C(=O)N(C)CC(=O)N(C)C)CCOCC2)NC1=O [compound 207, cPEG3aCO-Pen(3)-N(N(Me)2)-T-7MeW-K(NMeAc)-Pen(3)-AEF(AcCh)-2Nal-THP-K(NMeAc)-N-3Pya-Sar-CON(Me)2] ({Me3N+(CH2)2O(CH2)2O(CH2)2CO}-[Pen]D(NMe2)T[Trp(7-Me)][Lys(Me)](Ac)[Pen]Y(X54)[2Nal][Thp][Lys(Me)](Ac)N[3Pal][Sar]-NMe2; disulfide 1-6) | 139 | 3.2
CC(=O)N[C@H](CCCCNC(=O)CCC(=O)N[C@H](CC(=O)O)C[N+](C)(C)C)C(=O)N[C@@H]1C(=O)N[C@@H](CC(=O)N(C)C)C(=O)N[C@@H]([C@@H](C)O)C(=O)N[C@@H](Cc2c[nH]c3c(C)cccc23)C(=O)N[C@@H](CCCCN(C)C(C)=O)C(=O)N[C@H](C(=O)N[C@@H](Cc2ccc(OCCOCCOCC[N+](C)(C)C)cc2)C(=O)N[C@@H](Cc2ccc3ccccc3c2)C(=O)NC2(C(=O)N[C@@H](CCN(C)C(C)=O)C(=O)N[C@@H](CC(N)=O)C(=O)N[C@@H](Cc3cccnc3)C(=O)N(C)CC(=O)N(C)C)CCOCC2)C(C)(C)SSC1(C)C [compound 213, MeCO-k(d)-Pen(3)-N(N(Me)2)-T-7MeW-K(NMeAc)-Pen(3)-APEG3F-2Nal-THP-Dab(NMeAc)-N-3Pya-Sar-CON(Me)2] (Ac-[dK]([Suc-X19])[Pen]D(NMe2)T[Trp(7-Me)][Lys(Me)](Ac)[Pen]Y(CH2CH2OCH2CH2OCH2CH2NMe3+)[2Nal][Thp][Dab(NMeAc)]N[3Pal][Sar]-NMe2; disulfide 2-7) | 154 | 5.1
CC(=O)N(C)CCCC[C@@H]1NC(=O)[C@H](Cc2c[nH]c3c(C)cccc23)NC(=O)[C@H]([C@@H](C)O)NC(=O)[C@H](CC(=O)N(C)C)NC(=O)[C@@H](NC(=O)CCOCCOCC[N+](C)(C)C)C(C)(C)SSC(C)(C)[C@@H](C(=O)N[C@@H](Cc2ccc(OCCCCC[N+](C)(C)C)cc2)C(=O)N[C@@H](Cc2ccc3ccccc3c2)C(=O)NC2(C(=O)N[C@@H](CCCCN(C)C(C)=O)C(=O)N[C@@H](CC(N)=O)C(=O)N[C@@H](Cc3cccnc3)C(=O)N(C)CC(=O)NCCOCCOCC[N+](C)(C)C)CCOCC2)NC1=O [compound 220, cPEG3aCO-Pen(3)-N(N(Me)2)-T-7MeW-K(NMeAc)-Pen(3)-TMAPF-2Nal-THP-K(NMeAc)-N-3Pya-Sar-CO(NHPEG3a)] ({Me3N+(CH2)2O(CH2)2O(CH2)2CO}-[Pen]D(NMe2)T[Trp(7-Me)][Lys(Me)](Ac)[Pen]Y(X3)[2Nal][Thp][Lys(Me)](Ac)N[3Pal][Sar]-{NH(CH2CH2O)2CH2CH2NMe3+}; disulfide 1-6) | 142 | 1.4
COCCOCCC[N+](C)(CCCOCCOC)CCOc1ccc(C[C@H](NC(=O)[C@H]2NC(=O)[C@H](CCCCN(C)C(C)=O)NC(=O)[C@H](Cc3c[nH]c4c(C)cccc34)NC(=O)[C@H]([C@@H](C)O)NC(=O)[C@H](CC(=O)N(C)C)NC(=O)[C@@H](NC(=O)CCOCCOCC[N+](C)(C)C)C(C)(C)SSC2(C)C)C(=O)N[C@@H](Cc2ccc3ccccc3c2)C(=O)NC2(C(=O)N[C@@H](CCCCN(C)C(C)=O)C(=O)N[C@@H](CC(N)=O)C(=O)N[C@@H](Cc3cccnc3)C(=O)N(C)CC(=O)N(C)C)CCOCC2)cc1 [compound 221, cPEG3aCO-Pen(3)-N(N(Me)2)-T-7MeW-K(NMeAc)-Pen(3)-AEF(BisMEPa)-2Nal-THP-K(NMeAc)-N-3Pya-Sar-CON(Me)2Â] ({Me3N+(CH2)2O(CH2)2O(CH2)2CO}-[Pen]D(NMe2)T[Trp(7-Me)][Lys(Me)](Ac)[Pen]Y(X65)[2Nal][Thp][Lys(Me)](Ac)N[3Pal][Sar]-NMe2; disulfide 1-6) | 134 | 1.8
CC(=O)N(C)CCCC[C@@H]1NC(=O)[C@H](Cc2c[nH]c3c(C)cccc23)NC(=O)[C@H]([C@@H](C)O)NC(=O)[C@H](CC(=O)N(C)C)NC(=O)[C@@H](NC(=O)CCOCCOCC[N+](C)(C)C)C(C)(C)SSC(C)(C)[C@@H](C(=O)N[C@@H](Cc2ccc(OCCOCCOCC[N+]3(C)CCN(C)CC3)cc2)C(=O)N[C@@H](Cc2ccc3ccccc3c2)C(=O)NC2(C(=O)N[C@@H](CCCCN(C)C(C)=O)C(=O)N[C@@H](CC(N)=O)C(=O)N[C@@H](Cc3cccnc3)C(=O)N(C)CC(=O)N(C)C)CCOCC2)NC1=O [compound 224, cPEG3aCO-Pen(3)-N(N(Me)2)-T-7MeW-K(NMeAc)-Pen(3)-MPzPEG3F-2Nal-THP-K(NMeAc)-N-3Pya-Sar-CON(Me)2] ({Me3N+(CH2)2O(CH2)2O(CH2)2CO}-[Pen]D(NMe2)T[Trp(7-Me)][Lys(Me)](Ac)[Pen]Y(X22)[2Nal][Thp][Lys(Me)](Ac)N[3Pal][Sar]-NMe2; disulfide 1-6) | 139 | 3
